Square brackets hold non-standard residues; d marks the D form. Peptide text beside a SMILES is read from it. * marks the point of attachment. Asu = N[C@@H](CCCCCC(=O)O)C(=O)O; dPip = O=C(O)[C@H]1CCCCN1; NHOH = ON*
Columns and labels:
[1] = biological target: T1, Histone deacetylase 8 (Homo sapiens, UniProt Q9BY41); test: Inhibition of human Flag-tagged HDAC8 expressed in HEK293T cells by fluorescence based analysis; type: cell-based
T1 sequence (Q9BY41 whole entry): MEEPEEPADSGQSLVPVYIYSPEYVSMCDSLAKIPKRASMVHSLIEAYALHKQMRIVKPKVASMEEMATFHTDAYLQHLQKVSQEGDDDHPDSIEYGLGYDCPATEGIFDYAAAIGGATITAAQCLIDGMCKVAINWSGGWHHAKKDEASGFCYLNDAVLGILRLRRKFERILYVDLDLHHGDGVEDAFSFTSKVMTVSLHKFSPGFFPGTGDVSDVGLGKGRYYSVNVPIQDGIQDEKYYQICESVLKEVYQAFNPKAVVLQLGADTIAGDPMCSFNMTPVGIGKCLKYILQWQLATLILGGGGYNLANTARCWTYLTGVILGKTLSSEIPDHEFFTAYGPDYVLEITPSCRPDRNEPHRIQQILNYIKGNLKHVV

[2] = biological target: T2, Histone deacetylase 11 (Homo sapiens) (UniProt Q96DB2); test: Inhibition of HDAC11 (unknown origin) expressed in HEK293T cells at 100 uM relative to control; type: cell-based
T2 sequence (whole entry): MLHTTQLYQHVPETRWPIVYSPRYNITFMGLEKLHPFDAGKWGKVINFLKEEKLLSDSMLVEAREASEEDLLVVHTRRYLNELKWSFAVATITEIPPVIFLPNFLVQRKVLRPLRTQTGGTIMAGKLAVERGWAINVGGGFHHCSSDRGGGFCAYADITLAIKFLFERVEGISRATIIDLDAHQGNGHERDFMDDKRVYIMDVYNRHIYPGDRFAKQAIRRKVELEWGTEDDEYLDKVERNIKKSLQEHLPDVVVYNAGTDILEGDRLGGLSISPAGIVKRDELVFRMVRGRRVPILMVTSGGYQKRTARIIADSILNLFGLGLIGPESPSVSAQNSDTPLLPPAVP

[3] = biological target: T3, Histone deacetylase 11 (Homo sapiens, UniProt Q96DB2); test: Inhibition of full length N-terminal GST-tagged human HDAC11
T3 sequence (Q96DB2 whole entry): T2 sequence (whole entry)

[4] = biological target: T3, Histone deacetylase 11; test: Inhibition of HDAC11 (unknown origin)
[5] = biological target: T3, Histone deacetylase 11; test: Inhibition of full length human recombinant HDAC11 using FAM-RHKK(tri-fluor-Ac)-NH2 as substrate by electrophoretic mobility shift assay
[6] = biological target: T4, Protein deacetylase HDAC6 (Homo sapiens, UniProt Q9UBN7); test: Inhibition of human recombinant HDAC6 using AMC-K(Ac)GL as substrate by fluorescence based assay
T4 sequence (Q9UBN7 whole entry): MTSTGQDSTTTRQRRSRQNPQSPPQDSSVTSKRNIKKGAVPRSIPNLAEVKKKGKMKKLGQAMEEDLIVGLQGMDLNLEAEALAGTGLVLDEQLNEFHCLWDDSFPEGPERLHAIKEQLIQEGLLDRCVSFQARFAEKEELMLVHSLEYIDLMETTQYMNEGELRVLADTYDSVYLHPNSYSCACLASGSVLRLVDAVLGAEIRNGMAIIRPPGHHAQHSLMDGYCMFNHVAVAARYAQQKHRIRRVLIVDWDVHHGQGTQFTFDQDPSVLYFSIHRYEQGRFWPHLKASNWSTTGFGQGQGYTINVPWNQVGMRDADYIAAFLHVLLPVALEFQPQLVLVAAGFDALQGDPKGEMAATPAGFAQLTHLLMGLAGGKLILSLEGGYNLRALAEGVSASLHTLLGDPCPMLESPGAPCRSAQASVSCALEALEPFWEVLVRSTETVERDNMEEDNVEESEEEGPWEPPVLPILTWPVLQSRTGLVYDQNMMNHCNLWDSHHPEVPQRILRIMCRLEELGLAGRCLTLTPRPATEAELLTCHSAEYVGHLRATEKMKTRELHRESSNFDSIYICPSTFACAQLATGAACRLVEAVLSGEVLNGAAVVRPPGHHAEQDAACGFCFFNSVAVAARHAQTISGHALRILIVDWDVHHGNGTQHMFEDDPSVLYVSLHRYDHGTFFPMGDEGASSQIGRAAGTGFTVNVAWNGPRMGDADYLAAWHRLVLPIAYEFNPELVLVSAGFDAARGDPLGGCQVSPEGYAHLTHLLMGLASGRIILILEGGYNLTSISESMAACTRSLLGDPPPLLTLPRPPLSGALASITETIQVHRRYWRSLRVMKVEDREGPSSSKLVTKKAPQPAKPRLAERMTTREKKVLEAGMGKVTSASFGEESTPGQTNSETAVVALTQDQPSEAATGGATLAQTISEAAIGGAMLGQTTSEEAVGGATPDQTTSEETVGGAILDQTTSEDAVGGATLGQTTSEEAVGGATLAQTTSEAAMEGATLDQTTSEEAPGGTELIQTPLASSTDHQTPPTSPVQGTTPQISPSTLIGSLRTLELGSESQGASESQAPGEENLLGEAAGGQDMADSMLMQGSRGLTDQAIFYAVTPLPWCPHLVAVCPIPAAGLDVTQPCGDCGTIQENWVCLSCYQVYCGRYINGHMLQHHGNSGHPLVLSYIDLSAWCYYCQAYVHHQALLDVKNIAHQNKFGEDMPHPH

SMILES | inhibition [2] [%] | other results
CCCCCCCCCCCCCCCCNNC(=O)c1ccc(N(C)C)cc1 |  | IC50 [1]: > 100 µM
CCCCCCCCCCCCCCCCNNC(=O)c1cccs1 |  | IC50 [1]: > 100 µM
CCCCCCCC(=O)O | < 20 | 
CC[C@H](C)[C@@H]1NC(=O)[C@H](Cc2c[nH]c3ccccc23)NC(=O)[C@H](CCCCCC(=O)NO)NC(=O)[C@H]2CCCCN2C1=O (cyclo([Asu](NHOH)WI[dPip])) |  | IC50 [3]: 0.01 µM
CCC(=O)O | < 10 | 
O=C(O)CCCC[C@@H]1CCSS1 | < 20 | 
O=C(O)/C=C/c1ccc(-c2ccc(O)c(C34CC5CC(CC(C5)C3)C4)c2)cc1 [ADAROTENE] |  | IC50 [4]: > 10 µM
CCCC(=O)O | < 5 | 
CC(=O)O | < 10 | 
CCCCCC(=O)O | < 20 | 
CCCCCCCCCCCCCCCC(=O)O [PALMITIC ACID] |  | IC50 [5]: 900 µM
O=C(O)CCCC[C@@H]1SC[C@@H]2NC(=O)N[C@@H]21 | < 20 | 
O=C(O)C(F)(F)F | < 5 | 
Cn1c(/C=C/C(=O)NO)ccc1/C=C/C(=O)c1cccc(F)c1 |  | IC50 [6]: 8.4 µM
